From publication PMC10997755, “Discovery of a small-molecule inhibitor that traps Polθ on DNA and synergizes with PARP inhibitors” (Nature Communications, 2024) come the findings set out here.

One assay deals with T1, Polγ (Homo sapiens, UniProt P54098).
T1 construct: gift: Dr. Copeland (NIEHS)
T1 sequence (P54098 1-1239): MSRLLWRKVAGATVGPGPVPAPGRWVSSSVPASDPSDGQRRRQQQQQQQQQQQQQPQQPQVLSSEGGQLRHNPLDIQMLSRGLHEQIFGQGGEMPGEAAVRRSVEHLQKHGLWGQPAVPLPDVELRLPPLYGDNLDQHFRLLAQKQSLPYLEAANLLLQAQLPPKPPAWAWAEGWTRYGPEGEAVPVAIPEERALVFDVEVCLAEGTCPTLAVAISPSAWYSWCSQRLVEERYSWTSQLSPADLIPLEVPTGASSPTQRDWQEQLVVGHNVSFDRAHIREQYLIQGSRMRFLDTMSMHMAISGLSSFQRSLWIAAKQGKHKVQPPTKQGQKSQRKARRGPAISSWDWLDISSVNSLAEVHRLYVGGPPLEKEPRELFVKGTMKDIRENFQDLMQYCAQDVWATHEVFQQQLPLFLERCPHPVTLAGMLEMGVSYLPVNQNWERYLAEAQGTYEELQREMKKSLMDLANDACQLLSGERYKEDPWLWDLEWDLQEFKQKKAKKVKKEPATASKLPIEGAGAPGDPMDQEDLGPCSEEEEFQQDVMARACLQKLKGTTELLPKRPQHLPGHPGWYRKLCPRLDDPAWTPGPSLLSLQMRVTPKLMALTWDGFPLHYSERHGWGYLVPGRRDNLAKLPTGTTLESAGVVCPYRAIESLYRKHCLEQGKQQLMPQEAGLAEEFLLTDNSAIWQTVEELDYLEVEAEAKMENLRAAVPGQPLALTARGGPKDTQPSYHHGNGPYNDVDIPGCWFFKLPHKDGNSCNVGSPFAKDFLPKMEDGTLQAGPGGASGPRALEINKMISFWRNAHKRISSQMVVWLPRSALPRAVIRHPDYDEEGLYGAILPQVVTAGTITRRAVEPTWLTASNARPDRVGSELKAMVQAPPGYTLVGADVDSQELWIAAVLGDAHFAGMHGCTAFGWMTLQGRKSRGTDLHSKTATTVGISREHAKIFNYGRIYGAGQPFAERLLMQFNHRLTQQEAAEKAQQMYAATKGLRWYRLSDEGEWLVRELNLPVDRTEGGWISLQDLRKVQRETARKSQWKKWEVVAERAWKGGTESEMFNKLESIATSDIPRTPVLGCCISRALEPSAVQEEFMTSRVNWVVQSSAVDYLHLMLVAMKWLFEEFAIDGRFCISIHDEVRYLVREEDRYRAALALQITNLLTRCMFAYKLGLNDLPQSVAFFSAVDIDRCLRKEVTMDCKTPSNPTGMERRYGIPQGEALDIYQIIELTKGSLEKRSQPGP
Kind of assay: Primer extension by recombinant Pols (selectivity). Type of assay: biochemical.

The target of the next assay is T2, Polθ-pol:DNA/DNA complex (Homo sapiens, UniProt O75417).
T2 construct: purified recombinant human Polθ-pol (comprising amino acid residues 1792–2590); made in house
T2 sequence (O75417 1792-2590): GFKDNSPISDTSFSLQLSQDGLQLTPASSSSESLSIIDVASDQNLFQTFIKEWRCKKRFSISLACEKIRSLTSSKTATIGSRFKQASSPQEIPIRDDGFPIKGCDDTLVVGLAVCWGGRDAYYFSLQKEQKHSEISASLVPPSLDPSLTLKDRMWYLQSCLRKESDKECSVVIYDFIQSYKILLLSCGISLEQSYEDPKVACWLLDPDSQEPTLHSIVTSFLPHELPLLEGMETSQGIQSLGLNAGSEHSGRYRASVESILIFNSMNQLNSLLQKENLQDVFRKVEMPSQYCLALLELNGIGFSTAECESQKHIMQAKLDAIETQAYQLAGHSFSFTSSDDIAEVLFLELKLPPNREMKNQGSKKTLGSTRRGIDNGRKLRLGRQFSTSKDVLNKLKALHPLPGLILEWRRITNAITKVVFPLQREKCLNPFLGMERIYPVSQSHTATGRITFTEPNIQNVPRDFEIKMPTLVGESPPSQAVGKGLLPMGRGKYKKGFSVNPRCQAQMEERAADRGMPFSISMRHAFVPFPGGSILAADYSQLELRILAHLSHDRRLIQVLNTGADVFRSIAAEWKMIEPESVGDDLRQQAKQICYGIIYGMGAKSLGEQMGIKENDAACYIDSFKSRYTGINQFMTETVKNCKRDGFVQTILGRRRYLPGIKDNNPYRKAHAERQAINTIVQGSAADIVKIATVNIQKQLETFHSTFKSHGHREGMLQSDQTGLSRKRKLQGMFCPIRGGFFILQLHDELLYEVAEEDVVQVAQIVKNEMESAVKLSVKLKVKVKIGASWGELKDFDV
Kind of assay: KpnI endonuclease protection assay. Type of assay: biochemical. As to conditions: for trapping of post-catalytic complexes, different sequence context / i (%), normalized to 100%, ave(%) / i (%), replicates / i+1 (%) normalized to 100%, ave(%) / i+1 (%), replicates: KpnI; for i (%), normalized to 100%, ave(%) / i (%), replicates: 14 nt i; for i+1 (%) normalized to 100%, ave(%) / i+1 (%), replicates: 15 nt i+1. As for the experimental part: EcoRI and KpnI endonucleases assay: 25 nM 5’-^32P radiolabeled primer-template DNA Sc15-EcoRI (5’-^32P LM3-EcoRI/LM4-EcoRI) or Sc19-KpnI (5’-^32P LM11-Kpn/LM12-Kpn) in reaction buffer (25 mM Tris-HCl pH 7.5, 10 mM MgCl2, 10% glycerol, 0.1 mg/mL BSA, 0,01% igepal, 1 mM DTT) were incubated in the presence or in the absence of 50 nM Polθ-pol, 100 μM ddCTP, and 10 μM inhibitors, as indicated, for 5 min at room temperature. Next, 0.08 U/μL EcoRI or KpnI together with 500 nM “trapping” DNA Sc14 (RP559/RP702) were added and incubated for further 0–40 min at 30 °C as indicated. 10 nM PolθΔcen and FL-Polθ and 25 nM Sc15-EcoRI and Sc19-Kpn were probed with 0.04 U/μL EcoRI or KpnI (both from New England Biolabs) using the same conditions. Reactions were stopped by addition of formamide loading buffer with 50 mM EDTA, resolved in denaturing 20% urea PAAG and analyzed using Typhoon PhosphorImager (GE Amersham). Quantification was done in ImageQuant TL software. All quantified experiments were performed in triplicates and plotted as mean with ± s.d using GraphPad Prism 9 software.

The structures appear in SMILES notation. “And” between values parts separate entries of the source, which are not always exact repeats. Identical values can stand only once.

`CN(C(=O)Oc1c(N2CCN(CCO)C2=O)cc(C(F)(F)F)cc1C(F)(F)F)c1ccc(F)cc1` [RTx-161]: at Polγ (Pol Gamma), the “% Full Extension” value came out at 81.33%, the “% Inhibition Compared to Control” value was determined as 1.34% and the “% Relative Maximum Extension” value turned out to be 98.66%. For the same molecule, the “inhibition of primer extension” value on Polγ (selectivity panel) is “no inhibition”. Besides, on Polθ-pol:DNA/DNA complex (Kpn+pol+ddC+RTx161, 2.5min), the “KpnI cleavage %, ave” value was 0.667%; the “KpnI cleavage %, replicates” value is 1.0% (2×) and 0.0%. Further, on Polθ-pol:DNA/DNA complex (Kpn+pol+ddC+RTx161, 5min), the “KpnI cleavage %, ave” value is on record as 0.667%; the “KpnI cleavage %, replicates” value is 1.0% (2×) and 0.0%. For the same molecule, at Polθ-pol:DNA/DNA complex (Kpn+pol+ddC+RTx161, 10min), the “KpnI cleavage %, ave” value came to 1.7%; the “KpnI cleavage %, replicates” value is 2.0% (2×) and 1.0%. Further, at Polθ-pol:DNA/DNA complex, the “trapping of post-catalytic complexes, different sequence context” value is given as “identical trapping”. Also, on Polθ-pol:DNA/DNA complex (pol+ddC+161, 2.5 min), the “i (%), normalized to 100%, ave(%)” value is on record as 100.0%; the “i (%), replicates” value was 37.5% and 36.0% and 24.6%; the “i+1 (%) normalized to 100%, ave(%)” value is on record as 100.0%; the “i+1 (%), replicates” value is 53.1% and 51.8% and 59.1%. On Polθ-pol:DNA/DNA complex (pol+ddC+161, 5 min), the “i (%), normalized to 100%, ave(%)” value is on record as 87.7%; the “i (%), replicates” value is 33.9% and 31.6% and 20.7%; the “i+1 (%) normalized to 100%, ave(%)” value was found to be 105.6%; the “i+1 (%), replicates” value was 54.8% and 55.9% and 62.4%. Further, on Polθ-pol:DNA/DNA complex (pol+ddC+161, 10 min), the “i (%), normalized to 100%, ave(%)” value worked out at 67.8%; the “i (%), replicates” value was 26.7% and 24.4% and 15.5%; the “i+1 (%) normalized to 100%, ave(%)” value is 114.7%; the “i+1 (%), replicates” value was 61.3% and 62.1% and 64.7%.

Take `CN1CCN(c2cc(C(F)(F)F)cc(C(F)(F)F)c2OC(=O)N(C)c2ccc(F)cc2)C1=O` [RTx-152]: the “KpnI cleavage %, ave” value is listed as 0.358% at Polθ-pol:DNA/DNA complex (Kpn+pol+ddC+RTx152, 2.5min); 0.665% on Polθ-pol:DNA/DNA complex (Kpn+pol+ddC+RTx152, 5min); 2.1% at Polθ-pol:DNA/DNA complex (Kpn+pol+ddC+RTx152, 10min). Also, the “KpnI cleavage %, replicates” value at Polθ-pol:DNA/DNA complex (Kpn+pol+ddC+RTx152, 2.5min) is 0.0% and 0.447% and 0.6%; on Polθ-pol:DNA/DNA complex (Kpn+pol+ddC+RTx152, 5min) it was 0.321% and 0.8% and 0.9%; on Polθ-pol:DNA/DNA complex (Kpn+pol+ddC+RTx152, 10min), 1.8% and 2.3% and 2.0%. Also, at Polθ-pol:DNA/DNA complex, the “trapping of post-catalytic complexes, different sequence context” value is on record as “identical trapping”. Also, the “i (%), normalized to 100%, ave(%)” value at Polθ-pol:DNA/DNA complex (pol+ddC+152, 2.5 min) turned out to be 100.0%; on Polθ-pol:DNA/DNA complex (pol+ddC+152, 5 min), 85.8%; at Polθ-pol:DNA/DNA complex (pol+ddC+152, 10 min) it was 63.7%. The “i (%), replicates” value is 35.4% and 37.2% and 33.9% at Polθ-pol:DNA/DNA complex (pol+ddC+152, 2.5 min); 30.7% and 32.1% and 28.6% at Polθ-pol:DNA/DNA complex (pol+ddC+152, 5 min); 21.4% and 24.5% and 21.9% at Polθ-pol:DNA/DNA complex (pol+ddC+152, 10 min). The “i+1 (%) normalized to 100%, ave(%)” value is recorded as 100.0% at Polθ-pol:DNA/DNA complex (pol+ddC+152, 2.5 min); 107.9% on Polθ-pol:DNA/DNA complex (pol+ddC+152, 5 min); 120.8% at Polθ-pol:DNA/DNA complex (pol+ddC+152, 10 min). Also, the “i+1 (%), replicates” value is 53.1% and 50.1% and 54.1% at Polθ-pol:DNA/DNA complex (pol+ddC+152, 2.5 min); 57.1% and 52.5% and 60.1% at Polθ-pol:DNA/DNA complex (pol+ddC+152, 5 min); 62.6% and 62.1% and 65.2% at Polθ-pol:DNA/DNA complex (pol+ddC+152, 10 min).
